Tested on: Experimental autoimmune encephalomyelitis (EAE) in female SJL mice
Assay: Experimental autoimmune encephalomyelitis (EAE) induced with PLP139-151, daily clinical scoring
Type: in vivo
Conditions: for Number of sick animals: 2 × 5 mg/kg p.o., 2× daily up to day 21, n=10
[1] = oral administration, compared with untreated controls

O=C(Nc1c(Cl)cncc1Cl)c1ccc(OC(F)F)c(OCC2CC2)c1 [substance A, 3-cyclopropylmethoxy-4-difluoromethoxy-N-(3,5-dichloropyrid-4-yl)benzamide]
Number of sick animals (day 2 after EAE induction): 0
Number of sick animals (day 4 after EAE induction): 0
Number of sick animals (day 6 after EAE induction): 0
Number of sick animals (day 8 after EAE induction): 0
Number of sick animals (day 10 after EAE induction): 0
Number of sick animals (day 12 after EAE induction): 0
Number of sick animals (day 14 after EAE induction): 1
Number of sick animals (day 16 after EAE induction): 3
Number of sick animals (day 18 after EAE induction): 3
Number of sick animals (day 20 after EAE induction): 3
Number of sick animals (day 22 after EAE induction): 3
Number of sick animals (day 24 after EAE induction): 4
Number of sick animals (day 26 after EAE induction): 3
Number of experimental animals with no MS-analogous symptomatology at all (of the 10 treated animals, monitoring period up to the 26th day after EAE induction): 6
Effect on onset of the MS-analogous symptomatology [1]: delay in the onset of the MS-analogous symptomatology
Effect on the number of animals which suffer from the experimental encephalitis [1]: marked decrease in the number of animals

From patent US6531493B1, “3-cyclopropylmethoxy-4-difluoromethoxy-N-(3,5-dichloropyrid-4-yl)benzamide in the treatment of multiple sclerosis” (Altana Pharma AG, priority 1999, dated 2003)
